# pIC50: −log10 of the molar value.
# What was measured:
# [1] = system: Aβtotal; test: In vivo efficacy: Aβtotal in brain (ELISA); set-up: species or system mouse; settings: brain soluble fraction; typical protocol: single oral dose, overnight fasted animals, after four hours
# Source text: To determine whether acute administration of an Aβ42 lowering agent would reduce Aβ42 levels in vivo, non-transgenic rodents, e.g. mice or rats were used. Alternatively, two to three month old Tg2576 mice expressing APP695 containing the “Swedish” variant can be used or a transgenic mouse model developed by Dr. Fred Van Leuven (K.U.Leuven, Belgium) and co-workers, with neuron-specific expression of a clinical mutant of the human amyloid precursor protein [V717I] (Moechars et al., 1999 J. Biol. Chem. 274, 6483). Young transgenic mice have high levels of Aβ in the brain but no detectable Aβ deposition. At approximately 6-8 months of age, the transgenic mice start to display spontaneous, progressive accumulation of β-amyloid (A13) in the brain, eventually resulting in amyloid plaques within the subiculum, hippocampus and cortex. Animals treated with the Aβ42 lowering agent were examined and compared to those untreated or treated with vehicle and brain levels of soluble Aβ42 and total Aβ would be quantitated by standard techniques, for example, using ELISA. Treatment periods varied from hours to days and were adjusted based on the results of the Aβ42 lowering once a time course of onset of effect could be established.
# A typical protocol for measuring Aβ42 lowering in vivo is shown but it is only one of many variations that could be used to optimize the levels of detectable Aβ. For example, Aβ42 lowering compounds were formulated in 20% of Captisol® (a sulfobutyl ether of β-cyclodextrin) in water or 20% hydroxypropyl β cyclodextrin. The Aβ42 lowering agents were administered as a single oral dose or by any acceptable route of administration to overnight fasted animals. After four hours, the animals were sacrificed and Aβ42 levels were analysed.
# Blood was collected by decapitation and exsanguinations in EDTA-treated collection tubes. Blood was centrifuged at 1900 g for 10 minutes (min) at 4° C. and the plasma recovered and flash frozen for later analysis. The brain was removed from the cranium and hindbrain. The cerebellum was removed and the left and right hemisphere were separated. The left hemisphere was stored at −18° C. for quantitative analysis of test compound levels. The right hemisphere was rinsed with phosphate-buffered saline (PBS) buffer and immediately frozen on dry ice and stored at −80° C. until homogenization for biochemical assays.
# Mouse brains were resuspended in 10 volumes of 0.4% DEA (diethylamine)/50 mM NaCl pH 10 (for non-transgenic animals) or 0.1% 3-[(3-cholamidopropyl)-dimethyl-ammonio]-1-propanesulfonate (CHAPS) in tris buffered saline (TBS) (for transgenic animals) containing protease inhibitors (Roche-11873580001 or 04693159001) per gram of tissue, e.g. for 0.158 g brain, add 1.58 ml of 0.4% DEA. All samples were sonicated for 30 sec on ice at 20% power output (pulse mode). Homogenates were centrifuged at 221.300×g for 50 min. The resulting high speed supernatants were then transferred to fresh tubes and were optionally further purified before the next step. A portion of the supernatant was neutralized with 10% 0.5 M Tris-HCl and this was used to quantify Aβtotal.
# The obtained supernatants were purified with Water Oasis HLB reverse phase columns (Waters Corp., Milford, Mass.) to remove non-specific immunoreactive material from the brain lysates prior subsequent Aβ detection. Using a vacuum manifold, all solutions were passed through the columns at a rate of approximately 1 ml/min, so the vacuum pressure was adjusted accordingly throughout the procedure. Columns were preconditioned with 1 ml of 100% MeOH, before equilibration with 1 ml of H2O, Non-neutralized brain lysates were loaded onto the columns. The loaded samples were then washed twice with the first wash performed with 1 ml of 5% MeOH, and the second wash with 1 ml of 30% MeOH. Finally, the Aβ was eluted from the columns and into 100×30 mm glass tubes, with a solution of 90% MeOH with 2% NH4OH. […]
# [2] = system: Aβ42; test: Method 1: Aβ42 sandwich ELISA on media of SKNBE2 cells carrying APP 695 wild type (γ-secretase-modulating activity); assay type: cell-based; settings: Homo sapiens, SKNBE2 cells APP 695 wild type, 18 hours
# How it was run: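 SKNBE2 cells expressing wild-type APP695 exposed to compounds for 18 h in Ultraculture with 1% glutamine. Secreted Aβ42 in media quantified by sandwich ELISA (C-terminal capture, biotinylated 3D6 detection, TMB, 450 nm). IC50 from 4-parameter fit, top/bottom fixed 100/0, Hill slope fixed 1; toxicity checked by WST-1.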
pIC50 [2],SMILES,Aβtotal (% Ctrl) _Mean [1] [% Ctrl]
7.34,"COc1cccc(-n2cc3cccc(Nc4ccc(-n5cnc(C)c5)c(OC)c4)c3n2)c1 [Compound 1, N-[3-methoxy-4-(4-methyl-1H-imidazol-1-yl)phenyl]-2-(3-methoxyphenyl)-2H-indazol-7-amine]",108
8.15,"COc1cccc(-n2nc3c(Nc4ccc(-n5cnc(C)c5)c(OC)c4)cccc3c2C)c1 [Compound 2, N-[3-methoxy-4-(4-methyl-1H-imidazol-1-yl)phenyl]-2-(3-methoxyphenyl)-3-methyl-2H-indazol-7-amine]",90
6.82,"COc1cc(Nc2cccc3cn(CC(F)(F)F)nc23)ccc1-c1cnc(C)o1 [Compound 6, N-[3-methoxy-4-(2-methyl-5-oxazolyl)phenyl]-2-(2,2,2-trifluoroethyl)-2H-indazol-7-amine]",95
7.12,"COc1cc(Nc2cccc3cn(Cc4ccc(F)cc4)nc23)ccc1-n1cnc(C)c1 [Compound 15, 2-[(4-fluorophenyl)methyl]-N-[3-methoxy-4-(4-methyl-1H-imidazol-1-yl)phenyl]-2H-indazol-7-amine]",94
7.55,"COc1cccc(-n2nc3c(Nc4ccc(-c5cnc(C)o5)cc4)cccc3c2C)c1 [Compound 29, 2-(3-methoxyphenyl)-3-methyl-N-[4-(2-methyl-5-oxazolyl)phenyl]-2H-indazol-7-amine]",98
7.04,"COc1cccc(-n2nc3c(Nc4ccc(-c5cnc(C)o5)c(OC)c4)nccc3c2C)c1 [Compound 42, N-[3-methoxy-4-(2-methyl-5-oxazolyl)phenyl]-2-(3-methoxyphenyl)-3-methyl-2H-pyrazolo[3,4-c]pyridin-7-amine]",100

SMILES,pIC50 [2],Aβtotal (% Ctrl) _Mean [1] [% Ctrl]
"COc1cc(Nc2cccc3cn(CC4CC4)nc23)ccc1-c1cnc(C)o1.Cl [Compound 38, 2-(cyclopropylmethyl)-N-[3-methoxy-4-(2-methyl-5-oxazolyl)phenyl]-2H-indazol-7-amine HCl]",6.29,106

# — patent US20120095036A1, “NOVEL SUBSTITUTED INDAZOLE AND AZA-INDAZOLE DERIVATIVES AS GAMMA SECRETASE MODULATORS” (priority 2009, published 2012)
